From patent publication US12377104B1, “Methods for treating a fatty liver disease” (Madrigal Pharmaceuticals, Inc., priority 2024, dated 2025)

Key:
[1] = MAESTRO-NASH: bone mineral density T score and fractures; parameters: species or system human; conditions: in vivo
[2] = MAESTRO-NASH: sex hormones at week 52; conditions: for Estradiol (female), LS mean CFB / Estradiol (female), LS mean difference from PBO (CFB) / Estradiol (male), LS mean CFB / Estradiol (male), LS mean difference from PBO (CFB) / FSH (female), LS mean CFB / FSH (female), LS mean difference from PBO (CFB) / FSH (male), LS mean CFB / FSH (male), LS mean difference from PBO (CFB) / Free testosterone (female), LS mean CFB / Free testosterone (female), LS mean difference from PBO (CFB) / Free testosterone (male), LS mean CFB / Free testosterone (male), LS mean difference from PBO (CFB) / LH (female), LS mean CFB / LH (female), LS mean difference from PBO (CFB) / LH (male), LS mean CFB / LH (male), LS mean difference from PBO (CFB) / SHBG (female), LS mean % CFB / SHBG (female), LS mean CFB / SHBG (female), LS mean difference from PBO (% CFB) / SHBG (female), LS mean difference from PBO (CFB) / SHBG (male), LS mean % CFB / SHBG (male), LS mean CFB / SHBG (male), LS mean difference from PBO (% CFB) / SHBG (male), LS mean difference from PBO (CFB) / SHBG, LS mean % CFB / SHBG, LS mean CFB / SHBG, LS mean difference from PBO (% CFB) / SHBG, LS mean difference from PBO (CFB) / Testosterone (female), LS mean CFB / Testosterone (female), LS mean difference from PBO (CFB) / Testosterone (male), LS mean CFB / Testosterone (male), LS mean difference from PBO (CFB): Week 52

Question: For `CC(C)c1cc(Oc2c(Cl)cc(-n3nc(C#N)c(=O)[nH]c3=O)cc2Cl)n[nH]c1=O` [Resmetirom, 2-(3,5-dichloro-4-((5-isopropyl-6-oxo-1,6-dihydropyridazin-3-yl)oxy)phenyl)-3,5-dioxo-2,3,4,5-tetrahydro-1,2,4-triazine-6-carbonitrile], which “fractures and bone mineral density T scores” value [1] is on record?
Answer: no increases in fractures or substantial changes in bone mineral density T scores

Question: What about the “Estradiol (female), LS mean CFB” value ([2]; 80 mg) of the same compound?
Answer: 17.7 ng/L

Question: And the “Estradiol (female), LS mean difference from PBO (CFB)” value ([2]; 80 mg)?
Answer: 15.9 ng/L

Question: And the “Estradiol (male), LS mean CFB” value ([2]; 80 mg)?
Answer: 8.9 ng/L

Question: And the “Estradiol (male), LS mean difference from PBO (CFB)” value ([2]; 80 mg)?
Answer: 9.0 ng/L

Question: And the “FSH (female), LS mean CFB” value ([2]; 80 mg)?
Answer: −0.54 mIU/mL

Question: And the “FSH (female), LS mean difference from PBO (CFB)” value ([2]; 80 mg)?
Answer: 0.79 mIU/mL

Question: What about the “FSH (male), LS mean CFB” value ([2]; 80 mg) of the same compound?
Answer: 1.1 mIU/mL

Question: What about the “FSH (male), LS mean difference from PBO (CFB)” value ([2]; 80 mg) of the same compound?
Answer: 1.1 mIU/mL

Question: What about the “Free testosterone (female), LS mean CFB” value ([2]; 80 mg) of the same compound?
Answer: 0 nmol/L

Question: What about the “Free testosterone (female), LS mean difference from PBO (CFB)” value ([2]; 80 mg) of the same compound?
Answer: 0 nmol/L

Question: What about the “Free testosterone (male), LS mean CFB” value ([2]; 80 mg) of the same compound?
Answer: 0.04 nmol/L

Question: And the “Free testosterone (male), LS mean difference from PBO (CFB)” value ([2]; 80 mg)?
Answer: 0.02 nmol/L

Question: And the “LH (female), LS mean CFB” value ([2]; 80 mg)?
Answer: −0.93 mIU/mL

Question: And the “LH (female), LS mean difference from PBO (CFB)” value ([2]; 80 mg)?
Answer: −0.33 mIU/mL

Question: And the “LH (male), LS mean CFB” value ([2]; 80 mg)?
Answer: 1.7 mIU/mL

Question: And the “LH (male), LS mean difference from PBO (CFB)” value ([2]; 80 mg)?
Answer: 1.8 mIU/mL

Question: What about the “SHBG (female), LS mean % CFB” value ([2]; 80 mg) of the same compound?
Answer: 193.0%

Question: What about the “SHBG (female), LS mean CFB” value ([2]; 80 mg) of the same compound?
Answer: 74.1 nmol/L

Question: What about the “SHBG (female), LS mean difference from PBO (% CFB)” value ([2]; 80 mg) of the same compound?
Answer: 177.4%

Question: And the “SHBG (female), LS mean difference from PBO (CFB)” value ([2]; 80 mg)?
Answer: 73.3 nmol/L

Question: What about the “SHBG (male), LS mean % CFB” value ([2]; 80 mg) of the same compound?
Answer: 108.0%

Question: What about the “SHBG (male), LS mean CFB” value ([2]; 80 mg) of the same compound?
Answer: 41.9 nmol/L

Question: What about the “SHBG (male), LS mean difference from PBO (% CFB)” value ([2]; 80 mg) of the same compound?
Answer: 107.3%

Question: And the “SHBG (male), LS mean difference from PBO (CFB)” value ([2]; 80 mg)?
Answer: 40.4 nmol/L

Question: And the “SHBG, LS mean % CFB” value ([2]; 80 mg)?
Answer: 157.5%

Question: And the “SHBG, LS mean CFB” value ([2]; 80 mg)?
Answer: 60.2 nmol/L

Question: What about the “SHBG, LS mean difference from PBO (% CFB)” value ([2]; 80 mg) of the same compound?
Answer: 148.5%

Question: And the “SHBG, LS mean difference from PBO (CFB)” value ([2]; 80 mg)?
Answer: 58.9 nmol/L

Question: What about the “Testosterone (female), LS mean CFB” value ([2]; 80 mg) of the same compound?
Answer: 0.15 µg/L

Question: What about the “Testosterone (female), LS mean difference from PBO (CFB)” value ([2]; 80 mg) of the same compound?
Answer: 0.15 µg/L

Question: What about the “Testosterone (male), LS mean CFB” value ([2]; 80 mg) of the same compound?
Answer: 2.6 µg/L

Question: And the “Testosterone (male), LS mean difference from PBO (CFB)” value ([2]; 80 mg)?
Answer: 2.2 µg/L

Question: What about the “Estradiol (female), LS mean CFB” value ([2]; 100 mg) of the same compound?
Answer: 30.6 ng/L

Question: What about the “Estradiol (female), LS mean difference from PBO (CFB)” value ([2]; 100 mg) of the same compound?
Answer: 28.8 ng/L

Question: What about the “Estradiol (male), LS mean CFB” value ([2]; 100 mg) of the same compound?
Answer: 11.0 ng/L

Question: What about the “Estradiol (male), LS mean difference from PBO (CFB)” value ([2]; 100 mg) of the same compound?
Answer: 11.2 ng/L

Question: And the “FSH (female), LS mean CFB” value ([2]; 100 mg)?
Answer: 0.63 mIU/mL

Question: And the “FSH (female), LS mean difference from PBO (CFB)” value ([2]; 100 mg)?
Answer: 2.0 mIU/mL

Question: And the “FSH (male), LS mean CFB” value ([2]; 100 mg)?
Answer: 1.7 mIU/mL

Question: What about the “FSH (male), LS mean difference from PBO (CFB)” value ([2]; 100 mg) of the same compound?
Answer: 1.7 mIU/mL

Question: What about the “Free testosterone (female), LS mean CFB” value ([2]; 100 mg) of the same compound?
Answer: 0 nmol/L

Question: And the “Free testosterone (female), LS mean difference from PBO (CFB)” value ([2]; 100 mg)?
Answer: 0 nmol/L

Question: And the “Free testosterone (male), LS mean CFB” value ([2]; 100 mg)?
Answer: 0.03 nmol/L

Question: What about the “Free testosterone (male), LS mean difference from PBO (CFB)” value ([2]; 100 mg) of the same compound?
Answer: 0.01 nmol/L

Question: And the “LH (female), LS mean CFB” value ([2]; 100 mg)?
Answer: 0.80 mIU/mL

Question: What about the “LH (female), LS mean difference from PBO (CFB)” value ([2]; 100 mg) of the same compound?
Answer: 1.4 mIU/mL

Question: And the “LH (male), LS mean CFB” value ([2]; 100 mg)?
Answer: 1.9 mIU/mL

Question: And the “LH (male), LS mean difference from PBO (CFB)” value ([2]; 100 mg)?
Answer: 2.0 mIU/mL

Question: And the “SHBG (female), LS mean % CFB” value ([2]; 100 mg)?
Answer: 251.8%

Question: What about the “SHBG (female), LS mean CFB” value ([2]; 100 mg) of the same compound?
Answer: 94.0 nmol/L

Question: And the “SHBG (female), LS mean difference from PBO (% CFB)” value ([2]; 100 mg)?
Answer: 236.2%

Question: And the “SHBG (female), LS mean difference from PBO (CFB)” value ([2]; 100 mg)?
Answer: 93.2 nmol/L

Question: What about the “SHBG (male), LS mean % CFB” value ([2]; 100 mg) of the same compound?
Answer: 174.0%

Question: And the “SHBG (male), LS mean CFB” value ([2]; 100 mg)?
Answer: 60.8 nmol/L

Question: And the “SHBG (male), LS mean difference from PBO (% CFB)” value ([2]; 100 mg)?
Answer: 173.3%

Question: What about the “SHBG (male), LS mean difference from PBO (CFB)” value ([2]; 100 mg) of the same compound?
Answer: 59.3 nmol/L

Question: And the “SHBG, LS mean % CFB” value ([2]; 100 mg)?
Answer: 217.4%

Question: What about the “SHBG, LS mean CFB” value ([2]; 100 mg) of the same compound?
Answer: 80.7 nmol/L

Question: What about the “SHBG, LS mean difference from PBO (% CFB)” value ([2]; 100 mg) of the same compound?
Answer: 208.4%

Question: And the “SHBG, LS mean difference from PBO (CFB)” value ([2]; 100 mg)?
Answer: 79.4 nmol/L

Question: What about the “Testosterone (female), LS mean CFB” value ([2]; 100 mg) of the same compound?
Answer: 0.19 µg/L

Question: What about the “Testosterone (female), LS mean difference from PBO (CFB)” value ([2]; 100 mg) of the same compound?
Answer: 0.19 µg/L

Question: And the “Testosterone (male), LS mean CFB” value ([2]; 100 mg)?
Answer: 3.5 µg/L

Question: What about the “Testosterone (male), LS mean difference from PBO (CFB)” value ([2]; 100 mg) of the same compound?
Answer: 3.0 µg/L

Question: And the “levels of sex hormones” value ([2]; in vivo)?
Answer: little changed from baseline
